Measurements from US11389433B2, “BRD4 inhibitor treatment of IgE-mediated diseases” (THE BOARD OF REGENTS OF THE UNIVERSITY OF TEXAS SYSTEM, priority 2018, dated 2022).
Blank lines part the entries; values can stand above or below the compound they belong to.

Experiments:
[1] = cited from earlier work
[2] = system: rCDE-challenged C57BL/6 mice; assay: Repetitive cat dander extract (rCDE) challenge, airway remodeling model; format: in vivo, mouse; conditions: 10 mg/kg ip; for modified Ashcroft score: rCDE alone 8.8±2 (IKKi study), 9±2 (ZL0454 study)
Method: 12 week old male wild-type (WT) C57BL/6 mice were purchased from Jackson Laboratory (Bar Harbor, Me.). CDE (Stallergenes/Greer laboratories, 20 μg/dose) was administered to naïve C57BL6/J mice every other day via the intranasal route for a total of 15 administrations (n=5 mice/group). In the IKK inhibitor experiments, mice were either pretreated with vehicle or the selective IKK inhibitor [BMS345541, 10 mg/kg via the intraperitoneal (ip) route]. […] Mice were sacrificed 12 d later to allow resolution of the acute inflammation.
Formalin-fixed lungs were embedded in paraffin, sectioned at a 4 μm thickness, and stained with hematoxylin and eosin or Masson's trichrome. Microscopy was performed on a NIKON Eclipse Ti System 16, 17. Pulmonary fibrosis was graded using a modified Ashcroft scoring method 16, 17. In brief, to determine the fibrosis histopathology score for the lung of each mouse, the entire left and right longitudinal lung sections were scored separately (score range, 0 to 9) at ×100 magnification, and the scores were combined (total score range, 0 to 18)^16, 17.
Bronchoalveolar lavage and tissue processing. Animals were anesthetized, bronchoalveolar lavage fluid (BALF) was obtained and the mice sacrificed. Lung tissues were taken for total RNA extraction or fixed for histological examination. For histological examination, lungs were inflated under 25 cm H2O pressure with 10% (v/v) neutral buffered formalin through the tracheal cannula and immersed in 10% buffered formalin for at least 24 h. After being processed into paraffin blocks, the lungs were cut into 5-μm sections and stained with Masson Trichrome to assess fibrotic changes. Microscopy was performed on a NIKON Eclipse Ti System^75.
Quantification of accumulated mucin was assessed by 2 investigators who were blind to the treatment groups on a subjective scale of 0, 1, 2, 3, and 4 corresponding to none, mild, moderate, marked, or severe mucin deposition, respectively. Data were expressed as means of scores recorded by 2 blinded investigators^76,77.
(§1) Cellular recruitment into the airway lumen was assessed in the collected bronchoalveolar lavage fluid (BALF) of mice. Lungs were perfused twice with 1 mL of sterile PBS (pH 7.4) and total cell counts determined by trypan blue staining and counting using a hemocytometer. Differential cell counts were performed on cytocentrifuge preparations (Cytospin 3; Thermo Shandon, Pittsburgh, Pa.) stained with Wright-Giemsa. A total of 300 cells were counted per sample using light microscopy.
(§2) For gene expression analyses, 0.1 μg of cDNA product from reverse transcription of total RNA was amplified using SYBR Green Supermix (Bio-Rad) and gene-specific primers as previously described^75, 78. Quantification of relative changes in gene expression was calculated using the ΔΔCt method^79,80 and expression as the fold change between experimental and control samples was normalized to internal control peptidylprolyl isomerase A (PPI1A)/cyclophilin A.
Confocal Immunofluorescence assays of lung sections were performed on formalin-fixed, paraffin-embedded sections after rehydration using serial concentrations of ethanol. Antigen retrieval was performed in Tris-EDTA buffer (pH 9.0). Lung sections were blocked using 0.1% Triton-X, 5% normal goat serum in phosphate buffered saline (PBS) and incubated with primary antibodies of rabbit anti-p276RelA, pIKKα/β, SNAIL H3K122ac, COL1A, VIM, FN1, and αSMA (Abcam, 1:100 dilution) overnight at 4° C. Normal anti-rabbit IgG were used as staining specificity controls. After washing, lung sections were stained with Alexa Fluor 488- or 568-conjugated goat anti-rabbit IgG (Life Technologies) in incubation buffer for 1 h. Nuclei were stained with 4′, 6-diamidino-2-phenylindole (DAPI) (5 μg/ml in PBS, 20 min) and mounted slides visualized with a LSM510 fluorescence confocal microscope, magnification 63×.
Total IgE in serum were measured using Sandwich ELISA. […]

[3] = system: CIG5; assay: Inhibition of CIG5 induction in hSAECs; format: cell-based; conditions: Homo sapiens
[4] = 3 months of administration; cited from earlier work
[5] = system: acute CDE-challenged mice; assay: Acute intranasal CDE challenge, BALF cell counts; format: in vivo, mouse; conditions: 10 mg/kg; within 24 h of treatment
Description: FIG. 12. BRD4 pathway mediates CDE-induced EMT of airway epithelial cells. […] A, Q-RT-PCR for CDH1 mRNA expression. #, p<0.01, compared to without CDE, n=3. B, Q-RT-PCR for SNAI1 mRNA expression. *, p<0.01, compared to CDE alone, n=3. C, Q-RT-PCR for COL1A, FN1, and VIM mRNA expression. D, Q-RT-PCR for IL6 mRNA expression. E, Confocal immunofluorescence microscopy for phalloidin (green color), H3K122-Ac (red color), SNAI1 (green color), and VIM (red color) counterstained with DAPI (blue color) in WT hSAECs in absence or presence of CDE (20 μg/mL, 15d) stimulation. Images were acquired at 63×. At right are quantifications of relative fluorescence intensities of phalloidin, H3K122ac, SNAIL and VIM, * p<0.01, n=5. […] Shown are total, macrophage, and neutrophil counts in BALF 24 h later after CDE challenge. G. Total serum IgE was quantitated for each chronic treatment group **, p<0.01, n=5.
as §1

[6] = system: hSAECs; assay: CDE-induced mesenchymal transition of hSAECs; format: cell-based, human; conditions: CDE 20 μg/mL 15 d; 10 μM
Method: Immortalized human small airway epithelial cells (hSAECs) were previously described^25. hSAECs were grown in SAGM small airway epithelial cell growth medium (Lonza, Walkersville, Md.) in a humidified atmosphere of 5% CO2. BMS345541 was purchased from Sigma Aldrich. CDE was purchased from Greer Laboratories.
as §2
hSAECs were incubated ±CDE (20 μg/mL) for 15 d, re-plated on glass cover slips pretreated with rat tail collagen (Roche Applied Sciences), and fixed with 4% paraformaldehyde in PBS. Afterwards, the fixed cells were stained with Alexa Fluor® 488- or 568-phalloidin (Life Technologies) for cytoplasmic distribution of F-actin (green or red color) and also counterstained with 4′,6-diamidino-2-phenylindole (DAPI) for nuclear staining (blue color). The cells were visualized with a Nikon fluorescence confocal microscope at a magnification of 63×^75, 78.
For immunofluorescence staining, hSAECs were plated on rat tail collagen-treated cover glasses and stimulated with CDE for the indicated times. The cells were fixed with 4% paraformaldehyde in PBS and incubated with 0.1 m ammonium chloride for 10 min. […] After washing, cells were stained with Alexa Fluor 488- or 568-conjugated goat anti-rabbit IgG (Life Technologies) respectively in incubation buffer for 1 h, then visualized with a LSM510 fluorescence confocal microscope, magnification 63×.

[7] = biological target: BRD4 (Homo sapiens, UniProt O60885); conditions: in cellulo; cited from earlier work
[8] = system: IL-6; assay: Inhibition of IL-6 induction in hSAECs; format: cell-based; conditions: Homo sapiens

Compound: CCC(=O)O[C@]1(C(=O)SCF)[C@H](C)C[C@H]2[C@@H]3C[C@H](F)C4=CC(=O)C=C[C@]4(C)[C@@]3(F)[C@@H](O)C[C@@]21C [Fluticasone propionate]
solubility in dimethyl sulfoxide and dimethylformamide [1]: freely soluble
solubility in methanol and 95% ethanol [1]: slightly soluble
solubility in water ([1]; water): practically insoluble

Compound: Cc1ccc2nc(NCCN)c3ncc(C)n3c2c1 [IKKi, reference compound]
total leukocytes in the BALF ([2]; rCDE 15 intranasal challenges, rCDE alone 1,700×10^3): 450×10^3 cells/ml
CDE-specific circulating IgE (allergic sensitization) ([2]; rCDE): completely blocked
PAS staining (mucin, mucous metaplasia) ([2]; rCDE): blocked
fibrosis / collagen formation and hypercellularity (Masson trichrome) ([2]; rCDE): reduced the fibrosis and hypercellularity, although not completely in the alveoli
mesenchymal and ECM gene mRNA expression in total lung RNA (Q-RT-PCR) ([2]; rCDE): inhibited
mucosal mesenchymal and ECM proteins (SNAI1, VIM, COL1A, FN1), immunofluorescence ([2]; rCDE): completely blocked
subepithelial αSMA+/COL1+ myofibroblast population ([2]; rCDE): blocked
hydroxyproline concentration in BALF and lung tissue ([2]; rCDE, rCDE alone 2-fold increase): normalized
modified Ashcroft score ([2]; rCDE): 2±1
phospho-IKKα/β abundance in the airway epithelial layer ([2]; rCDE, rCDE alone 9-fold increase): reduced to control values
mucosal phospho-Ser 276 RelA formation ([2]; rCDE, rCDE alone 14-fold increase): blocked

IC50 [3]: 0.42 µM
Compound: Cc1cc(/N=N/c2ccc3c(c2)CCC(=O)N3)c(N)cc1O [ZL0420]

Compound: Cc1cc(/N=N/c2ccc(S(=O)(=O)NC3CCCC3)cc2)c(N)cc1O [ZL0454, (E)-4-((2-Amino-4-hydroxy-5-methylphenyl)diazenyl)-N-cyclopentylbenzenesulfonamide]
tolerability / apparent toxicity [4]: well tolerated over 3 months of administration without apparent toxicity
acute CDE-induced BALF neutrophilia [5]: blocked
CDE-induced inhibition of CDH1 mRNA [6]: blocked
CDE-induced upregulation of SNAI1, FN1, VIM, COL1A and IL6 mRNAs [6]: significantly blocked
formation of actin stress fibers, H3K122 Ac, SNAI1 and VIM expression (confocal immunofluorescence) [6]: prevented
BRD4 binding to Pol II and histones [7]: disrupts
CDE-specific circulating IgE (allergic sensitization) ([2]; rCDE): completely blunted allergic responses
PAS staining (mucin, mucous metaplasia) ([2]; rCDE): reduced
RelA-BRD4 binding in lung sections (proximity ligation assay) ([2]; rCDE): disrupted
fibrosis / collagen formation and hypercellularity (Masson trichrome) ([2]; rCDE): reduced collagen formation and hypercellularity
mesenchymal and ECM gene mRNA expression in total lung RNA (Q-RT-PCR) ([2]; rCDE): BRD4-dependent
mucosal H3K122 Ac staining (BRD4 HAT activity) ([2]; rCDE): inhibited
mucosal mesenchymal and ECM proteins (SNAI1, VIM, COL1A, FN1), immunofluorescence ([2]; rCDE): inhibited
subepithelial αSMA+/COL1+ myofibroblast population ([2]; rCDE): blocked
hydroxyproline content in the lung ([2]; rCDE, rCDE alone 0.65±1): 0.35 ± 0.4 µg/mg
modified Ashcroft score ([2]; rCDE): 1.5±0.5
hydroxyproline content in BALF ([2]; rCDE, rCDE alone 130±20): 70 ± 10 ng/mL

IC50 [8]: 2.8 µM
IC50 [3]: 2.6 µM
Compound: COc1cc(OC)c2c(=O)cc(-c3cc(C)c(OCCO)c(C)c3)oc2c1 [ZL0468]
